This assay deals with PBMC. Description: GSH/GSSG ratio by LC-MS/MS in treated PBMC samples. Type of assay: cell-based, human. Conditions: 4 PBMC samples, 12 hours. The method, then: The levels of glutathione (GSH, reduced form) and glutathione disulfide (GSSG, oxidized form) in the whole blood of each subject were determined using a liquid chromatography-tandem mass spectrometry (LC-MS/MS)-based procedure modified from that of Norris et al. (J Chromatogr B Biomed Sci Appl. 2001; 762 (I):17-23) In brief, whole blood was mixed in a 1:4 (v:v) ratio with solution containing n-ethylmaleimide (NEM), sulfosalicylic acid, EDTA and methanol. Supernatants were diluted with stable-isotope internal standards (GSH-^13C, ^15N-NEM and GSSG-^13C, ^15N) and analyzed by LC-MS/MS, using an API 3000 Tandem Mass Spectrometer with Turbulon Ion Spray source, Shimadzu solvent delivery system and LEAP Technology autosampler. GSH (as GSH-NEM) and GSSG were monitored by transitions m/z 433→304 and m/z […] respectively, and data was acquired using Analyst 1.4.
Significance analysis of microarrays (SAM) was conducted for analysis of microarray data to identify differentially expressed genes. The Mann-Whitney test was used in the analysis of real-time PCR validation data. Unpaired t-test was conducted for the comparison of glutathione levels in ITP patients and controls. Paired t-test was carried out for the analysis of differences in GSH/GSSG ratios in cells with or without LPS or sodium arsenite treatments. […]

Regarding `O=[As]O` [sodium arsenite], where the note is “sodium arsenite 5 μM, p=0.01”, the “GSH/GSSG ratio compared with untreated cells” value was “statistically significant decrease”.
As for Lipopolysaccharide [LPS], the “GSH/GSSG ratio compared with untreated cells” value (LPS 10 ng/ml, p=0.04) is given as “statistically significant decrease”.
